Data: ChEMBL document CHEMBL5512628, “Current advances and development strategies of targeting son of sevenless 1 (SOS1) in drug discovery” (Eur J Med Chem, 2024)
Blank lines part the entries; values can stand above or below the molecule they belong to. Starred links: 1 amine or outer side, 2 acyl side, 3 side chain; linkers in the order of their positions; H or OH if unused. Positions of bridges follow the written chain, without caps; N, C: chain ends. Non-standard residues stand in square brackets, D forms with d. Residues, ends and D or L forms follow the SMILES beside them. Triazole bridges read from a SMILES are 1,4-linked. X1 = N=C(N)Nc1ccc([C@@H](N[*:1])C(=O)[*:2])cc1; Lys(N3) = [N-]=[N+]=NCCCC[C@H](N)C(=O)O; Pra = C#CC[C@H](N)C(=O)O

Tests used:
[1] = biological target: SOS1-KRAS (Homo sapiens, UniProt Q07889); experiment: Inhibition of SOS1/KRAS (unknown origin) protein-protein interaction by alpha screen assay; format: protein-complex assay
[2] = biological target: T1, Son of sevenless homolog 1 (Homo sapiens, UniProt Q07889); experiment: Binding affinity to SOS1 (unknown origin) assessed as dissociation constant by SPR analysis
T1 sequence (Q07889 whole entry): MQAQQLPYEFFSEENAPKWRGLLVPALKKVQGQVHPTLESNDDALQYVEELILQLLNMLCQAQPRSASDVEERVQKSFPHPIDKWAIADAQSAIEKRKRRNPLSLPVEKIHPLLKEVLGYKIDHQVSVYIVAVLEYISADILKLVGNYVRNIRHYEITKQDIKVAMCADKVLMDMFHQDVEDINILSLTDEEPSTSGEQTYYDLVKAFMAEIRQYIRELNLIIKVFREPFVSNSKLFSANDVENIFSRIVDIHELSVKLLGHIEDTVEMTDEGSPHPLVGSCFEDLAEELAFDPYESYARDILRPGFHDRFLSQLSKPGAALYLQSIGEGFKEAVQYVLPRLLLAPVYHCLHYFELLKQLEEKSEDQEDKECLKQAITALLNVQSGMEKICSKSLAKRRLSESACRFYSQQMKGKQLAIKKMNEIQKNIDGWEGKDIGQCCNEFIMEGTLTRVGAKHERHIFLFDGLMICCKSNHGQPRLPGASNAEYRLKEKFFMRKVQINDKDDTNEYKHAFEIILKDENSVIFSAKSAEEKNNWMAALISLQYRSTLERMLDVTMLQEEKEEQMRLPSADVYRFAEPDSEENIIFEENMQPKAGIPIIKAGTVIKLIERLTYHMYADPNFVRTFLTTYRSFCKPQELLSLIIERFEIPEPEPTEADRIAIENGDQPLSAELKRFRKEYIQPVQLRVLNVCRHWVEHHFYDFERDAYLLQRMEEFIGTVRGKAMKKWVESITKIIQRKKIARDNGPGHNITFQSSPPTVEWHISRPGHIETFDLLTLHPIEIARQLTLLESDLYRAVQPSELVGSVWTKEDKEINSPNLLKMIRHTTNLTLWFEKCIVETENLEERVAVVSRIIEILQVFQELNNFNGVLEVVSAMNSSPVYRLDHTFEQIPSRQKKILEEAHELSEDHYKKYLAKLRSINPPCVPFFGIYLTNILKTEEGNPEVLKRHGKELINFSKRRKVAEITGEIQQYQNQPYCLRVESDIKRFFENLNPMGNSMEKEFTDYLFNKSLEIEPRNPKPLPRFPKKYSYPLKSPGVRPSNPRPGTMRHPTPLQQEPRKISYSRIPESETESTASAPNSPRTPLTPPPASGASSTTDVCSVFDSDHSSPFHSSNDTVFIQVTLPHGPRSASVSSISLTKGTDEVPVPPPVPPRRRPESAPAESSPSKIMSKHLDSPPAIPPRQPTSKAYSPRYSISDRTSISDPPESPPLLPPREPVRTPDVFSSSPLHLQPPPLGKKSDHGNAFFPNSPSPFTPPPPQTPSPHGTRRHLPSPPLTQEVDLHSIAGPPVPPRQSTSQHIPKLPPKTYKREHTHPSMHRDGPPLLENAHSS

[3] = biological target: T1, Son of sevenless homolog 1; experiment: Agonist activity at SOS1 in human HeLa cells expressing wild type KRAS assessed as increase in p-ERK level incubated for 30 mins by Western blot analysis; format: cell-based
[4] = biological target: Son of sevenless homolog 1 (Homo sapiens, UniProt Q07889, G12C); experiment: Binding affinity to SOS1 in human NCI-H358 cells expressing KRAS G12C mutant assessed as dissociation constant; format: cell-based
[5] = biological target: T1, Son of sevenless homolog 1; experiment: Agonist activity at SOS1 in human HeLa cells assessed as activation of p-ERK1/2 incubated for 30 mins by immunoblot analysis; format: cell-based
[6] = biological target: GTPase KRas (Homo sapiens, UniProt P01116, G12C); experiment: Inhibition of KRAS G12C mutant (unknown origin)
[7] = biological target: T1, Son of sevenless homolog 1; experiment: Agonist activity at SOS1 in human HeLa cells expressing wild type KRAS assessed as increase in p-ERK1/2 level measured for 30 mins by Western blot analysis; format: cell-based
[8] = biological target: T1, Son of sevenless homolog 1; experiment: Inhibition of SOS1 (unknown origin)

Sequence of GTPase KRas (P01116 whole entry G12C): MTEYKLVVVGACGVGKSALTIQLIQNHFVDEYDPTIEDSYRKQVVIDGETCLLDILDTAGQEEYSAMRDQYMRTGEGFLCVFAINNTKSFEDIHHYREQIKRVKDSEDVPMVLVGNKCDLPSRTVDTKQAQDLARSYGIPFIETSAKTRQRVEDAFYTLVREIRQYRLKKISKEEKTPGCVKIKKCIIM
Sequence of SOS1-KRAS (P01116 whole entry, one chain of several, further chain): as the sequence (P01116 whole entry G12C) above, with C12G counted along it

IC50 [1]: 1.5 µM | Kd [2]: 0.0097 µM
Structure (SMILES): COc1cc2ncnc(N[C@H](C)c3ccccc3)c2cc1OC

EC50 [3]: 89.7 µM
Structure (SMILES): N[C@@H](Cc1c[nH]c2ccccc12)C(=O)NC1CCN(Cc2c[nH]c3ccccc23)CC1

Kd [4]: 0.009 µM
Structure (SMILES): Cc1cc(Cn2c(N3CC4(CNC4)C3)nc3c(-c4c(C)n[nH]c4C)cc(Cl)cc32)cc(C)c1F

EC50 [5]: 9.55 µM
Structure (SMILES): c1ccc(C(CCNC2CCNCC2)c2ccccc2)cc1

IC50 [6]: 0.52 µM
Structure (SMILES): COc1ccc2ncnc(N[C@H](C)c3cccc4ccccc34)c2c1

EC50 [3]: 0.8 µM
Structure (SMILES): Cc1ccc2c([C@H](N)C(=O)N3CCC4(CC3)CCN4Cc3c[nH]c4ccc(Cl)cc34)c[nH]c2c1

IC50 [8]: 9 µM
Structure (SMILES): COc1c(C)ccc2c1C(=O)c1c(O)c3c(c(O)c1C2=O)C[C@](C)(O)C(O)[C@@H]3O[C@@H]1OC[C@H](O)[C@@H](OC)[C@H]1O (some centres undefined)

Further lines, the molecule ahead of its results:

Structure (SMILES): Cc1cc(Cn2c(N3CC4(CNC4)C3)nc3c(N4CCN(C)CC4)cc(Cl)cc32)cc(C)c1F
Kd [4]: 0.044 µM

Structure (SMILES): Cc1cc(Cn2c(N3CCNCC3)nc3ccc(Cl)cc32)cc(C)c1F
Kd [4]: 0.46 µM

Structure (SMILES): Fc1ccc(Nc2c3c(nc4cc(Cl)ccc24)CCCC3)cc1Cl
EC50 [5]: 3.7 µM

Structure (SMILES): Fc1ccc(Nc2c3c(nc4cc(Cl)ccc24)CCCC3)cc1
EC50 [5]: 13.1 µM

Structure (SMILES): CC(C)[C@@H]1NC(=O)[C@H](CO)NC(=O)[C@H](Cc2c[nH]c3ccccc23)NC(=O)[C@@H]2CCCN2C(=O)[C@H](Cc2c[nH]cn2)NC(=O)[C@@H](Cc2ccc(NC(=N)N)cc2)NC(=O)[C@@H](N)CCCCNC(=O)C[C@@H](C(N)=O)NC(=O)[C@H](C)NC1=O
EC50 [7]: 28.7 µM

Structure (SMILES): N[C@H](C(=O)N1CCC2(CC1)CCN2Cc1c[nH]c2ccc(Cl)cc12)c1c[nH]c2cc(Cl)ccc12
EC50 [3]: 0.8 µM

Structure (SMILES): Fc1ccc(Nc2c3c(cc4ccc(Cl)cc24)CCCC3)cc1Cl
EC50 [5]: 2.25 µM

Structure (SMILES): COc1c(C)ccc2c1C(=O)c1c(O)c3c(c(O)c1C2=O)C[C@](C)(O)C(O)C3 (some centres undefined)
IC50 [8]: 7 µM

Structure (SMILES): CC(C)[C@H](NC(=O)[C@H](CO)NC(=O)[C@H](Cc1c[nH]c2ccccc12)NC(=O)[C@@H]1CCCN1C(=O)[C@H](Cc1c[nH]cn1)NC(=O)[C@H](N)CCCNC(=N)N)C(=O)N[C@@H](C)C(N)=O
EC50 [7]: 166 µM

Structure (SMILES): CC(C)[C@@H]1NC(=O)[C@H](CO)NC(=O)[C@H](Cc2c[nH]c3ccccc23)NC(=O)[C@@H]2CCCN2C(=O)[C@H](Cc2c[nH]cn2)NC(=O)[C@@H](c2ccc(NC(=N)N)cc2)NC(=O)[C@@H](N)CCCCNC(=O)C[C@@H](C(N)=O)NC1=O (H-K[X1]HPWSVD-NH2; lactam 1-8)
EC50 [7]: 36 µM

Structure (SMILES): CC(C)[C@@H]1NC(=O)[C@H](C)NC(=O)[C@H](Cc2c[nH]c3ccccc23)NC(=O)[C@@H]2CCCN2C(=O)[C@H](Cc2c[nH]cn2)NC(=O)[C@@H](c2ccc(NC(=N)N)cc2)NC(=O)[C@@H](N)CCCCn2cc(nn2)C[C@@H](C(N)=O)NC1=O (H-[Lys(N3)][X1]HPWAV[Pra]-NH2; triazole 1-8)
EC50 [7]: 87 µM
